From PubChem BioAssay AID2060487 (Molecular Pharmacology Branch, DTP, NCI, 2025)

System: 997537-175-T-J1-PDC complex spheroid viability
Assay: Anticancer human tumor 997537-175-T-J1-PDC patient-derived colon adenocarcinoma cell line growth inhibition [GQUAD]
Conditions: for IC50: curve of first compound; for viability, T/C: stronger effect = lower value; active = viability on the fitted dose curve at most 10% of control; inactive = the rest
Summary of the method: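 Viability of tumor cells grown as complex spheroids with endothelial and stromal cells, exposed to drug combinations. Top concentration at or near clinical Cmax (else 10 microM), diluted in half-log increments.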

[1] = second compound 0.0316 µM, first compound 0.0316 µM
[2] = second compound 0.0316 µM, first compound 0.1 µM
[3] = second compound 0.0316 µM, first compound 0.316 µM
[4] = second compound 0.0316 µM, first compound 1 µM
[5] = second compound 0.0316 µM, first compound 3.16 µM
[6] = second compound 0.0316 µM, first compound 10 µM
[7] = second compound 0.1 µM, first compound 0.0316 µM
[8] = second compound 0.1 µM, first compound 0.1 µM
[9] = second compound 0.1 µM, first compound 0.316 µM
[10] = second compound 0.1 µM, first compound 1 µM
[11] = second compound 0.1 µM, first compound 3.16 µM
[12] = second compound 0.1 µM, first compound 10 µM
[13] = second compound 0.316 µM, first compound 0.0316 µM
[14] = second compound 0.316 µM, first compound 0.1 µM
[15] = second compound 0.316 µM, first compound 0.316 µM
[16] = second compound 0.316 µM, first compound 1 µM
[17] = second compound 0.316 µM, first compound 3.16 µM
[18] = second compound 0.316 µM, first compound 10 µM
[19] = second compound 1 µM, first compound 0.0316 µM
[20] = second compound 1 µM, first compound 0.1 µM
[21] = second compound 1 µM, first compound 0.316 µM
[22] = second compound 1 µM, first compound 1 µM
[23] = second compound 1 µM, first compound 3.16 µM
[24] = second compound 1 µM, first compound 10 µM
[25] = second compound 3.16 µM, first compound 0.0316 µM
[26] = second compound 3.16 µM, first compound 0.1 µM
[27] = second compound 3.16 µM, first compound 0.316 µM
[28] = second compound 3.16 µM, first compound 1 µM
[29] = second compound 3.16 µM, first compound 3.16 µM
[30] = second compound 3.16 µM, first compound 10 µM
[31] = second compound 10 µM, first compound 0.0316 µM
[32] = second compound 10 µM, first compound 0.1 µM
[33] = second compound 10 µM, first compound 0.316 µM
[34] = second compound 10 µM, first compound 1 µM
[35] = second compound 10 µM, first compound 3.16 µM
[36] = second compound 10 µM, first compound 10 µM
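Note: spheroids exposed to the agents for 7 days.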
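Throughout, for viability, T/C: 100% = DMSO vehicle control viability.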

COc1cc(C2c3cc4c(cc3C(OC3OC5COC(C)OC5C(O)C3O)C3COC(=O)C23)OCO4)cc(OC)c1O (centres undefined) + Cc1cnc(CNC(=O)c2c(=O)c3ccc(N4CCCN(C)CC4)nc3n3c2sc2ccccc23)cn1
inactive: viability, T/C [1] 113% | viability, T/C [2] 97.7% | viability, T/C [3] 101% | viability, T/C [4] 60.2% | viability, T/C [5] 78.6% | viability, T/C [6] 53% | viability, T/C [7] 109% | viability, T/C [8] 96.5% | viability, T/C [9] 84.9% | viability, T/C [10] 71.3% | viability, T/C [11] 63.2% | viability, T/C [12] 76.7% | viability, T/C [13] 78% | viability, T/C [14] 109% | viability, T/C [15] 104% | viability, T/C [16] 89.1% | viability, T/C [17] 60% | viability, T/C [18] 40.9% | viability, T/C [19] 88.1% | viability, T/C [20] 84.1% | viability, T/C [21] 97.3% | viability, T/C [22] 101% | viability, T/C [23] 75.3% | viability, T/C [24] 63.3% | viability, T/C [25] 62.1% | viability, T/C [26] 99.2% | viability, T/C [27] 104% | viability, T/C [28] 86.2% | viability, T/C [29] 76.4% | viability, T/C [30] 50.7% | viability, T/C [31] 71.4% | viability, T/C [32] 84.9% | viability, T/C [33] 106% | viability, T/C [34] 98.5% | viability, T/C [35] 88.6% | viability, T/C [36] 69.5%
> 10 µM: IC50 (second compound 0.0316 µM) | IC50 (second compound 0.1 µM) | IC50 (second compound 1 µM) | IC50 (second compound 3.16 µM) | IC50 (second compound 10 µM)
5.74 µM: IC50 (second compound 0.316 µM)

O=c1[nH]cc(F)c(=O)[nH]1 + CN(C)c1ccc(Nc2c3ccc(NC(=O)CCN4CCCC4)cc3nc3cc(NC(=O)CCN4CCCC4)ccc23)cc1
inactive: viability, T/C [1] 94.8% | viability, T/C [2] 90.6% | viability, T/C [3] 93.8% | viability, T/C [4] 75.5% | viability, T/C [5] 78.7% | viability, T/C [6] 59.7% | viability, T/C [7] 92.8% | viability, T/C [8] 83% | viability, T/C [9] 87.9% | viability, T/C [10] 66.7% | viability, T/C [11] 99.8% | viability, T/C [12] 84.4% | viability, T/C [13] 76.3% | viability, T/C [14] 85.6% | viability, T/C [15] 76.9% | viability, T/C [16] 76.7% | viability, T/C [17] 99.3% | viability, T/C [18] 87.9% | viability, T/C [19] 76.3% | viability, T/C [20] 65.8% | viability, T/C [21] 87.9% | viability, T/C [22] 79.3% | viability, T/C [23] 81.5% | viability, T/C [24] 99.3% | viability, T/C [25] 64.2% | viability, T/C [26] 92.6% | viability, T/C [27] 86.3% | viability, T/C [28] 90.7% | viability, T/C [29] 102% | viability, T/C [30] 87.4% | viability, T/C [31] 73.3% | viability, T/C [32] 79% | viability, T/C [33] 85.8% | viability, T/C [34] 80% | viability, T/C [35] 97% | viability, T/C [36] 63.5%
> 10 µM: IC50 (second compound 0.0316 µM) | IC50 (second compound 0.1 µM) | IC50 (second compound 0.316 µM) | IC50 (second compound 1 µM) | IC50 (second compound 3.16 µM) | IC50 (second compound 10 µM)
